Assay results published in the NIST ThermoML archive (doi:10.1016/j.jct.2014.10.023).

Assay: excess molar enthalpy (molar enthalpy of mixing); xn = mol fraction of the nth substance listed
Settings: 101 kPa, Liquid, Calvet calorimetry

[Li] [lithium] + [Ag]
Settings	excess molar enthalpy [kcal/mol]
873 K, x1 = 0.5664	-2.79
873 K, x1 = 0.5985	-2.69
873 K, x1 = 0.6338	-2.57
873 K, x1 = 0.6719	-2.4
873 K, x1 = 0.7007	-2.25
873 K, x1 = 0.7274	-2.09
873 K, x1 = 0.7617	-1.87
873 K, x1 = 0.7867	-1.7
873 K, x1 = 0.8408	-1.22
873 K, x1 = 0.8972	-0.767
873 K, x1 = 0.932	-0.474
873 K, x1 = 0.9771	-0.0813
1253 K, x1 = 0.1002	-0.73
1253 K, x1 = 0.1043	-0.754
1253 K, x1 = 0.1097	-0.799
1253 K, x1 = 0.1152	-0.853
1253 K, x1 = 0.1205	-0.897
1253 K, x1 = 0.1287	-0.956
1253 K, x1 = 0.1355	-1.01
1253 K, x1 = 0.1461	-1.1
1253 K, x1 = 0.1583	-1.21
1253 K, x1 = 0.1698	-1.35
1253 K, x1 = 0.1884	-1.51
1253 K, x1 = 0.1995	-1.6
1253 K, x1 = 0.2187	-1.73
1253 K, x1 = 0.264	-1.85
1253 K, x1 = 0.2711	-1.88
1253 K, x1 = 0.2851	-1.95
1253 K, x1 = 0.2976	-2.02
1253 K, x1 = 0.3124	-2.12
1253 K, x1 = 0.3281	-2.2
1253 K, x1 = 0.3503	-2.29
1253 K, x1 = 0.3774	-2.42
1253 K, x1 = 0.4086	-2.52
1253 K, x1 = 0.4371	-2.61
1253 K, x1 = 0.4847	-2.72
1253 K, x1 = 0.5245	-2.75
